Experiment [1] deals with T1, Peroxisome proliferator-activated receptor gamma (Homo sapiens, UniProt P37231).
T1 sequence (P37231 whole entry): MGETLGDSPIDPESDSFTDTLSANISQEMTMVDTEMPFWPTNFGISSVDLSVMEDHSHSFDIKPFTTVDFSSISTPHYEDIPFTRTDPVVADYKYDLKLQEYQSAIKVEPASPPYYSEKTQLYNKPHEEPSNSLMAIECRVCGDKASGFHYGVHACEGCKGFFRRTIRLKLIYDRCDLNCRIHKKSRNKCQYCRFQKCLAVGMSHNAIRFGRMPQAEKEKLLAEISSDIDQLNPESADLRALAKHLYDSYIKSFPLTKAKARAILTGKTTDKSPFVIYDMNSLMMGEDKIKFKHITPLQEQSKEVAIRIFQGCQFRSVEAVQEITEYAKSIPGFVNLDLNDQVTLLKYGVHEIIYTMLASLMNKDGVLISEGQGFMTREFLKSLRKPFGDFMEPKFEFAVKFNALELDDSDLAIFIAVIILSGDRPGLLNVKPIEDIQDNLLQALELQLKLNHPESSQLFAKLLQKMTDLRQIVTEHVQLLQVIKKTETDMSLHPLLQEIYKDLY
The experiment in a line: Agonist activity at GAL4- fused PPARgamma LBD (unknown origin) expressed in African green monkey COS7 cells by luciferase reporter gene assay. The format is cell-based. (In general: Reporter assays use an easily measured gene product as a stand-in for the process of interest.)

A further experiment deals with Melanoma cell line. The experiment in a line: Growth inhibition of human Melanoma cells after 48 hrs by MTT assay. The format is functional.
A short description of experiment [2]: Growth inhibition of human Caov cells after 48 hrs by MTT assay. Type of experiment: functional.
The test system of a further experiment is P388. The experiment in a line: Cytotoxicity against mouse P388 cells assessed as reduction in cell viability incubated for 72 hrs by MTT assay. Particulars: P388, 72 h. Type of experiment: functional, cell-based. (In general: Tetrazolium dyes change colour on reduction, which living cells bring about.)
The subject of the next experiment is HONE1 cell line. The experiment in a line: Cytotoxicity against human HONE1 cells assessed as reduction in cell viability incubated for 72 hrs by MTT assay. Type of experiment: functional, cell-based. Particulars: HONE1, 72 h.
A further experiment relates to HT-29. The experiment in a line: Cytotoxicity against human HT-29 cells assessed as reduction in cell viability incubated for 72 hrs by MTT assay. The format is functional, cell-based. Particulars: HT-29, 72 h.
For experiment [3], the target named is T2, Polyunsaturated fatty acid 5-lipoxygenase (Homo sapiens, UniProt P09917).
T2 sequence (P09917 whole entry): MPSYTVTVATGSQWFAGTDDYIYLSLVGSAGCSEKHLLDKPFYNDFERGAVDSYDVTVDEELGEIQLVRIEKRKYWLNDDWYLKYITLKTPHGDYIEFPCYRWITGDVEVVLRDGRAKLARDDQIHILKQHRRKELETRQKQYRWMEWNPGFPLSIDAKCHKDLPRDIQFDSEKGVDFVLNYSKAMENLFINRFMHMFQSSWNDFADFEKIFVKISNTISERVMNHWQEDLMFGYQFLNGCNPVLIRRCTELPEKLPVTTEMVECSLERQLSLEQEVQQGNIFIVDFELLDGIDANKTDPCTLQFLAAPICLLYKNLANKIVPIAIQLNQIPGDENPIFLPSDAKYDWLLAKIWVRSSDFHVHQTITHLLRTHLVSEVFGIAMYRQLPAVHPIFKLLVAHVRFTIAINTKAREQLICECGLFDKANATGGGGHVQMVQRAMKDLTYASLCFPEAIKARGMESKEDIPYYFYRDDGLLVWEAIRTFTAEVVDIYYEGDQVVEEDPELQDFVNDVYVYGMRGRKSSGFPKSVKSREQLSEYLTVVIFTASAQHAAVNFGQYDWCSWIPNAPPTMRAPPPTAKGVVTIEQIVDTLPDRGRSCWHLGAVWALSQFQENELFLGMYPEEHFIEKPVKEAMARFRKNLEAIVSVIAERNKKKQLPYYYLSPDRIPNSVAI
The experiment in a line: Inhibition of 5-LOX in polymorphonuclear leucocytes (unknown origin). The format is cell-based.

Experiment [4] has as its target T2, Polyunsaturated fatty acid 5-lipoxygenase. The experiment in a line: Inhibition of 5-LOX (unknown origin).
Experiment [5] concerns Trypanosoma brucei brucei. The experiment in a line: Antitrypanosomal activity against Trypanosoma brucei brucei GUTat 3.1 after 72 hrs by Alamar Blue assay. Type of experiment: functional, organism-based. Particulars: GUTat 3.1, 72 h. In general terms: Resazurin is reduced to fluorescent resorufin, in cell work by metabolically active cells.
Experiment [6] is described as follows: Cytotoxicity against human […] cells assessed as reduction in cell viability after 72 hrs by Alamar Blue assay. Type of experiment: functional, cell-based.
Another experiment deals with HCT-116. The experiment in a line: Anticancer activity against human HCT116 cells assessed as reduction in cell viability incubated for 1 hr by SRB assay. Type of experiment: functional, cell-based. Particulars: HCT-116, 1 h.
The subject of another experiment is THP-1. The experiment in a line: Anticancer activity against human THP1 cells assessed as reduction in cell viability incubated for 1 hr by SRB assay. Type of experiment: functional, cell-based. Particulars: THP-1, 1 h.
The test system of the next experiment is A549. The experiment in a line: Anticancer activity against human A549 cells assessed as reduction in cell viability incubated for 1 hr by SRB assay. Conditions: A549, 1 h. The format is functional, cell-based.
A short description of experiment [7]: Anticancer activity against human IMR13 cells assessed as reduction in cell viability incubated for 1 hr by SRB assay. Type of experiment: functional, cell-based.

SMILES strings stand for the structures. Converted amounts (≈) assume the structure as drawn.

The term EC50 denotes the concentration at which the effect is half-maximal. Compound `CCCOc1cc(C)c2c(c1C)C[C@H]([C@H](C)C(=O)O)CC2` came in with an EC50 in [1] of 15 µM.
Broadly, the GI50 is the concentration giving 50% growth inhibition. Take `CC1=C2[C@H]3OC(=O)[C@@H](CN4CCCC(C)(C)C4)[C@@H]3CC[C@@]2(C)C=CC1=O`: the GI50 in the experiment on Melanoma cell line stood at 3 µM; in experiment [2], 2 µM.
For `COc1ccc(N2CCN(C[C@@H]3C(=O)O[C@@H]4C5=C(C)C(=O)C=C[C@]5(C)CC[C@@H]34)CC2)cc1`, the GI50 (in the experiment on Melanoma cell line; in [2]) was 3 µM in each case.
As a reminder, the IC50 is the concentration at which inhibition is half-maximal. `C[C@@H]1C(=O)O[C@H]2C3=CC(=O)C[C@@H](O)[C@]3(C)CC[C@@H]12`: the IC50 in the experiment on P388, in the experiment with HONE1 cell line and with HT-29 was 3.1 to 6.9 µM each time.
For `CCCN(CCC)C[C@@H]1C(=O)O[C@@H]2C3=C(C)C(=O)C=C[C@]3(C)CC[C@@H]12`, the GI50 turned out to be 4 µM with Melanoma cell line and 2 µM in experiment [2].
For `CCCOc1cc(C)c2c(c1C)C[C@H]([C@@H](C)C(=O)Nc1nccs1)CC2`, the IC50 in experiment [3] turned out to be 0.8 µM; in [4], 1 µM.
For `CCCOc1cc(C)c2c(c1C)C[C@H]([C@@H](C)C(=O)NCc1cccs1)CC2` the same measures were 8 µM and 3 µM.
On to `CC1=C2[C@H]3OC(=O)[C@@H](CN4CCN(Cc5ccc6c(c5)OCO6)CC4)[C@@H]3CC[C@@]2(C)C=CC1=O`, for which the GI50 worked out at 2 µM in the experiment with Melanoma cell line and 4 µM in experiment [2].
As for `CC1=C2[C@H]3OC(=O)[C@@H](CN4CCOCC4)[C@@H]3CC[C@@]2(C)C=CC1=O`, the values for the GI50 (in the experiment on Melanoma cell line; in experiment [2]) were 3 µM and 4 µM, respectively.
As to `CCCOc1cc(C)c2c(c1C)C[C@H]([C@@H](C)C(=O)Nc1ncc(C)s1)CC2`, the IC50 in experiment [3] came out at 1 µM; in experiment [4], 0.8 µM.
For the compound `C[C@@H]1C(=O)O[C@H]2[C@H]1CC[C@@]1(C)CCC(=O)[C@](C)(OO)[C@@H]21`, the EC50 was found to be 0.4 µg/mL (≈ 1.42 µM) in [5] and 64.2 µg/mL (≈ 227 µM) in experiment [6].
As to `CCCOc1cc(C)c2c(c1C)C[C@H]([C@@H](C)C(=O)Nc1ccccn1)CC2`, the IC50 came out at 0.9 µM in experiment [3] and 6 µM in experiment [4].
Consider `CC1=C2C(=O)[C@H]([C@@H](C)C(=O)OCc3ccccc3)CC[C@@]2(C)C=CC1Cc1ccccc1` (stereo partly drawn), for which the IC50 with HCT-116 is 0.6 µM; in the experiment with THP-1, 0.51 µM; with A549, 0.3 µM; in experiment [7], 0.23 µM.

These data come from ChEMBL document CHEMBL4393702, “Structure-activity relationship and synthetic methodologies of α-santonin derivatives with diverse bioactivities: A mini-review” (Eur J Med Chem, 2019).
